In patent publication US20250075179A1, “METHODS FOR INCREASING VIRAL TRANSDUCTION OF CELLS” (Trustees of Dartmouth College, priority 2021, published 2025):

What was measured:
Assay type in all cases: cell-based
[1] = tested on: human naïve B cells; test: Antibody class switching of naïve B cells after statin treatment, flow cytometry on Day 14; conditions: 5 μM Rosuvastatin 48 hours, then culture to Day 14, versus PBS control, FIG. 3
Procedure: As noted above, statins and other agents should not substantially reduce target cell activity and function. One function of naïve B cells is the ability to engage in antibody class switching. […] Specifically, human naïve B cells were isolated and cultured as described above in Example 1. Cells were plated at a density of 1×10^5 cells B cells per 6 well with 1×10^4 feeder cells plated the previous day. The dual culture was grown in the media and cytokine mix described above with or without 5 μM Rosuvastatin. After 48 hours of treatment, media was changed and cells were allowed to continue growing in the media and fresh cytokines. Every 3-4 days half of the media was removed and replaced with fresh media and cytokines at 1× concentration. Cells were trypsinized and split 1:5 at day 7. Subclass of expressed antibody was assessed by flow cytometry on Day 14.

[2] = tested on: human naïve B cells; test: LDL-R antibody enhancement of lentiviral transduction of B cells in feeder culture, GFP by flow cytometry; conditions: 48 hour 5 μM Rosuvastatin
[3] = tested on: human naïve B cells

With `CC(C)c1nc(N(C)S(C)(=O)=O)nc(-c2ccc(F)cc2)c1/C=C/[C@@H](O)C[C@@H](O)CC(=O)O` [rosuvastatin] the “percent of B cells expressing the measured subclasses of antibody (class switching)” value [1] was “did not alter”, the “Median Fluorescence Intensity” value ([2]; GFP+ virus, feeder culture + 250 ng/ml IL-2, no LDL-R antibody) was 9.5 and the “Median Fluorescence Intensity” value ([2]; GFP+ virus, feeder culture + 250 ng/ml IL-2, with anti-mouse LDL-R antibody 2 μg/mL) was 10. For the same compound, the “Median Fluorescence Intensity” value ([2]; GFP− virus (control virus), feeder culture + 250 ng/ml IL-2, no LDL-R antibody) was 3, the “B cell transduction percentage, some replicates” value [3] was “exceeding 90%” and the “GFP expression compared to B cells not treated with the statin or not transduced” value [3] was “substantially higher”. For the same compound, the “average B cell transduction percentage as measured by GFP expression, between technical replicates” value [3] was 80% and the “transduction relative to B cells not incubated with rosuvastatin” value [3] was “about 100 fold”.
